ChEMBL document CHEMBL2040815, “Sentulic acid: a cytotoxic ring A-seco triterpenoid from Sandoricum koetjape Merr” (Bioorg Med Chem Lett, 2012)
pIC50: −log10 of the molar value. Activity calls are given as the source filed them. No cut-off for these calls is given here.

How the values were obtained:
HL-60 [1] = experiment: Cytotoxicity against human HL60 cells assessed as inhibition of cell proliferation at 25 uM after 24 to 72 hrs by trypan blue dye exclusion test relative to control; assay type: functional
HL-60 [2] = experiment: Induction of apoptosis in human HL60 cells assessed as condensation of chromatin at 50 to 100 uM after 24 hrs by Hoechst 33342 staining; assay type: functional, cell-based
HL-60 [3] = experiment: Cytotoxicity against human HL60 cells assessed as inhibition of cell proliferation at 100 uM after 24 to 72 hrs by trypan blue dye exclusion test; assay type: functional, cell-based
HL-60 [4] = experiment: Induction of apoptosis in human HL60 cells assessed as DNA fragmentation laddering at 100 uM by agarose gel electrophoresis; assay type: functional, cell-based
HL-60 [5] = experiment: Cytotoxicity against human HL60 cells after 48 hrs by MTT assay; assay type: functional, cell-based; details: HL-60, 48 h
HL-60 [6] = experiment: Induction of apoptosis in human HL60 cells assessed as fragmentation of the nuclei at 50 to 100 uM after 24 hrs by Hoechst 33342 staining; assay type: functional, cell-based
HL-60 [7] = experiment: Cytotoxicity against human HL60 cells assessed as decrease in cell viability after 24 to 72 hrs by trypan blue dye exclusion test; assay type: functional, cell-based

Row | Compound | inhibition at 25 µM (HL-60 [1]) | Activity (HL-60 [2]) | inhibition (HL-60 [3]) | Activity (HL-60 [4]) | pIC50 (HL-60 [5]) | Activity (HL-60 [6]) | Activity (HL-60 [7])
1 | CC1(C)CC[C@]2(C)CC[C@]3(C(=O)O)C(=CC[C@@H]4[C@@]5(C)CCC(=O)C(C)(C)[C@@H]5CC[C@]43C)[C@@H]2C1 | 50% | Active | Active | Active | 4.56 | Active | Dose-dependent effect
2 | C=C(C)[C@@H]1CC[C@]2(C)[C@H](CC=C3[C@@H]4CC(C)(C)CC[C@]4(C)CC[C@]32C(=O)O)[C@@]1(C)CCC(=O)O [SENTULIC ACID] | 50% | Active | Active | Active | 4.43 | Active | Dose-dependent effect
